Usually IC50 stands for the midpoint of a concentration-inhibition curve.

In one assay the target is human orexin receptor 2 (Homo sapiens (Human), UniProt O43614). Put plainly: Orexin antagonist activity, intracellular calcium FLIPR assay, RBL-2H3 cells expressing human orexin receptor 2. The assay is classed as cell-based. Particulars: RBL-2H3 cells stably expressing human orexin receptor 2; orexin-A at approx. 80% maximal response; compound added 15 minutes before; read-out: Human Orexin2R IC50. For orientation: Calcium assays in cells follow changes in intracellular calcium, usually with a dye or a luminescent sensor.

The target in a further assay is human orexin receptor 1 (Homo sapiens (Human), UniProt O43613). Put plainly: Orexin antagonist activity, intracellular calcium FLIPR assay, RBL-2H3 cells expressing human orexin receptor 1. The assay is classed as cell-based. The conditions noted are these: RBL-2H3 cells stably expressing human orexin receptor 1; orexin-A at approx. 80% maximal response; compound added 15 minutes before; read-out: Human Orexin1R IC50.
human orexin receptor 1, sequence (O43613 whole entry): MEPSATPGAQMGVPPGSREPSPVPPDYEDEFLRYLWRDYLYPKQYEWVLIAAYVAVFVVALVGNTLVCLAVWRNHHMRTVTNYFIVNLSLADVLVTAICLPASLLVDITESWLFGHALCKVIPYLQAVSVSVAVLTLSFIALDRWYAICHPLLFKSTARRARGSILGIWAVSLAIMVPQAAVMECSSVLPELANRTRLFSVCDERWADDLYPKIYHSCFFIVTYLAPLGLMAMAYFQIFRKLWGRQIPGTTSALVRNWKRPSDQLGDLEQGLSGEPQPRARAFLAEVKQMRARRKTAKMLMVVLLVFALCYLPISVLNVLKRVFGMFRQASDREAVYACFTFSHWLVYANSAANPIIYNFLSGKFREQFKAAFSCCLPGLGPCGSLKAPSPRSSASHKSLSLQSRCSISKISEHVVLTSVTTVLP

human orexin receptor 2, sequence (O43614 whole entry): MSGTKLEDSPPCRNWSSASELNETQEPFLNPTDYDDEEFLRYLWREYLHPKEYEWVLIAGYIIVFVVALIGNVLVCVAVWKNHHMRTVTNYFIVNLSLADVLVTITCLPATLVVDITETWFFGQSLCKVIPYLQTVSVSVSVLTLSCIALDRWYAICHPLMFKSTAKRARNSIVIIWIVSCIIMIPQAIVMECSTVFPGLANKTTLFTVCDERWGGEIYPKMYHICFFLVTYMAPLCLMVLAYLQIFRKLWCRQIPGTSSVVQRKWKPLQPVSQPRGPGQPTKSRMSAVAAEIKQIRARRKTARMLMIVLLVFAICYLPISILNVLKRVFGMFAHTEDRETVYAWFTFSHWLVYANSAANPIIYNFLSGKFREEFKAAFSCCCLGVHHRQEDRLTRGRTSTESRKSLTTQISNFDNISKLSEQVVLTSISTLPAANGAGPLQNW

Take `CCOc1cccnc1C(=O)N[C@H]1CCC[C@@H]1Nc1cnc(C(F)(F)F)cn1` [Example 60, 3-Ethoxy-N-[(1S,2S)-2-{[5-(trifluoromethyl)pyrazin-2-yl]amino}cyclopentyl]pyridine-2-carboxamide]: the results for the half-inhibitory concentration (IC50) at human orexin receptor 2 and at human orexin receptor 1 were more than 10 µM and 852 nM, respectively.

Regarding `O=C(N[C@H]1CCC[C@@H]1Nc1cnc(C(F)(F)F)cn1)c1cc(F)cc(F)c1-n1nccn1` [Example 61, 3,5-Difluoro-2-(2H-1,2,3-triazol-2-yl)-N-[(1S,2S)-2-{[5-(trifluoromethyl)pyrazin-2-yl]amino}cyclopentyl]benzamide], the IC50 at human orexin receptor 2 was more than 10 µM; at human orexin receptor 1 it was 321 nM.

With `O=C(N[C@H]1CCC[C@@H]1Nc1cnc(C(F)(F)F)cn1)c1ccccc1C(F)(F)F` [Example 62, 2-(Trifluoromethyl)-N-[(1S,2S)-2-{[5-(trifluoromethyl)pyrazin-2-yl]amino}cyclopentyl]benzamide], the IC50 at human orexin receptor 2 was more than 10 µM; on human orexin receptor 1, 457 nM.

Regarding `O=C(N[C@H]1CCC[C@@H]1Nc1cnc(C(F)(F)F)cn1)c1ncccc1C1CC1` [Example 63, 3-Cyclopropyl-N-[(1S,2S)-2-{[5-(trifluoromethyl)pyrazin-2-yl]amino}cyclopentyl]pyridine-2-carboxamide], the figures for the IC50 on human orexin receptor 2 and at human orexin receptor 1 were more than 10 µM and 450 nM, respectively.

Consider `O=C(N[C@H]1CCC[C@@H]1Nc1cnc(C(F)(F)F)cn1)c1c(F)ccc(F)c1-n1nccn1` [Example 64, 3,6-Difluoro-2-(2H-1,2,3-triazol-2-yl)-N-[(1S,2S)-2-{[5-(trifluoromethyl)pyrazin-2-yl]amino}cyclopentyl]benzamide], for which the IC50 on human orexin receptor 2 was more than 10 µM; at human orexin receptor 1, 57 nM.

Regarding `O=C(N[C@H]1CCC[C@@H]1Nc1cnc(C(F)(F)F)cn1)c1ccccc1C(F)F` [Example 65, 2-(Difluoromethyl)-N-[(1S,2S)-2-{[5-(trifluoromethyl)pyrazin-2-yl]amino}cyclopentyl]benzamide], the IC50 on human orexin receptor 2 was more than 10 µM; on human orexin receptor 1, 797 nM.

Regarding `O=C(N[C@H]1CCC[C@@H]1Nc1cnc(C(F)(F)F)cn1)c1c(F)cccc1C1CC1` [Example 66, 2-Cyclopropyl-6-fluoro-N-[(1S,2S)-2-{[5-(trifluoromethyl)pyrazin-2-yl]amino}cyclopentyl]benzamide], the concentration for half-maximal inhibition (IC50) at human orexin receptor 2 is more than 10 µM; at human orexin receptor 1 it was 180 nM.

Take `Cc1ccc(-n2nccn2)c(C(=O)N[C@H]2CCC[C@@H]2Nc2ccc(C(F)(F)F)nc2)c1` [Example 67, 5-Methyl-2-(2H-1,2,3-triazol-2-yl)-N-[(1S,2S)-2-{[6-(trifluoromethyl)pyridin-3-yl]amino}cyclopentyl]benzamide]: the IC50 on human orexin receptor 2 is more than 10 µM; at human orexin receptor 1 it was 891 nM.

Regarding `COc1cccc(OC)c1C(=O)N(C1CCC1)[C@H]1CCC[C@@H]1Nc1ccc(C(F)(F)F)cn1` [Example 68, N-Cyclobutyl-2,6-dimethoxy-N-[(1S,2S)-2-{[5-(trifluoromethyl)pyridin-2-yl]amino}cyclopentyl]benzamide], the IC50 amounted to 1.61 µM on human orexin receptor 2 and 297 nM at human orexin receptor 1.

Take `O=C(N[C@H]1CCC[C@@H]1Nc1ccc(C(F)(F)F)cn1)c1ccccc1Cl` [Example 69, 2-Chloro-N-[(1S,2S)-2-{[5-(trifluoromethyl)pyridin-2-yl]amino}cyclopentyl]benzamide]: the results for the half-maximal inhibitory concentration (IC50) on human orexin receptor 2 and on human orexin receptor 1 were more than 10 µM and 321 nM, respectively.

With `O=C(N[C@H]1CCC[C@@H]1Nc1ncc(C(F)(F)F)cn1)c1ccccc1Cl` [Example 70, 2-Chloro-N-[(1S,2S)-2-{[5-(trifluoromethyl)pyrimidin-2-yl]amino}cyclopentyl]benzamide], the IC50 was more than 10 µM at human orexin receptor 2 and 678 nM on human orexin receptor 1.

`COc1cccc(F)c1C(=O)N[C@H]1CCC[C@@H]1Nc1ccc(C(F)(F)F)cn1` [Example 71, 2-Fluoro-6-methoxy-N-[(1S,2S)-2-{[5-(trifluoromethyl)pyridin-2-yl]amino}cyclopentyl]benzamide]: the IC50 on human orexin receptor 2 stood at 7.6 µM; on human orexin receptor 1, 722 nM.

`O=C(N[C@H]1CCC[C@@H]1Nc1ccc(C(F)(F)F)cn1)c1c(F)cccc1F` [Example 72, 2,6-Difluoro-N-[(1S,2S)-2-{[5-(trifluoromethyl)pyridin-2-yl]amino}cyclopentyl]benzamide]: the IC50 on human orexin receptor 2 is more than 10 µM; on human orexin receptor 1, 479 nM.

As for `CN(c1cnc(C(F)(F)F)cn1)[C@H]1CCC[C@@H]1NC(=O)c1ccccc1-n1nccn1` [Example 73, N-[(1S,2S)-2-{Methyl[5-(trifluoromethyl)pyrazin-2-yl]amino}cyclopentyl]-2-(2H-1,2,3-triazol-2-yl)benzamide], the IC50 is more than 10 µM at human orexin receptor 2 and 248 nM at human orexin receptor 1.

Turning to `CN(c1cnc(C(F)(F)F)cn1)[C@H]1CCC[C@@H]1NC(=O)c1cc(F)ccc1-n1nccn1` [Example 74, 5-Fluoro-N-[(1S,2S)-2-{methyl[5-(trifluoromethyl)pyrazin-2-yl]amino}cyclopentyl]-2-(2H-1,2,3-triazol-2-yl)benzamide], the IC50 on human orexin receptor 2 is more than 10 µM; on human orexin receptor 1, 308 nM.

Turning to `CN(c1cnc(C(F)(F)F)cn1)[C@H]1CCC[C@@H]1NC(=O)c1c(F)cccc1-n1nccn1` [Example 75, 2-Fluoro-N-[(1S,2S)-2-{methyl[5-(trifluoromethyl)pyrazin-2-yl]amino}cyclopentyl]-6-(2H-1,2,3-triazol-2-yl)benzamide], the IC50 on human orexin receptor 2 was more than 10 µM; on human orexin receptor 1 it was 279 nM.

With `Cc1nc(C(F)(F)F)cnc1N[C@H]1CCC[C@@H]1NC(=O)c1ncccc1-n1nccn1` [Example 76, N-[(1S,2S)-2-{[3-Methyl-5-(trifluoromethyl)pyrazin-2-yl]amino}cyclopentyl]-3-(2H-1,2,3-triazol-2-yl)pyridine-2-carboxamide], the IC50 at human orexin receptor 2 is more than 10 µM; on human orexin receptor 1, 33 nM.

Turning to `C[C@]1(Nc2cnc(C(F)(F)F)cn2)CCC[C@@H]1NC(=O)c1ncccc1-n1nccn1` [Example 77, N-[(1S,2S)-2-Methyl-2-{[5-(trifluoromethyl)pyrazin-2-yl]amino}cyclopentyl]-3-(2H-1,2,3-triazol-2-yl)pyridine-2-carboxamide], the figures for the IC50 on human orexin receptor 2 and at human orexin receptor 1 were more than 10 µM and 12 nM, respectively.

For the compound `Cc1nc(C(F)(F)F)cnc1N[C@H]1CCC[C@@H]1NC(=O)c1ccccc1-n1nccn1` [Example 78, N-[(1S,2S)-2-{[3-Methyl-5-(trifluoromethyl)pyrazin-2-yl]amino}cyclopentyl]-2-(2H-1,2,3-triazol-2-yl)benzamide], the values for the IC50 on human orexin receptor 2 and on human orexin receptor 1 were more than 10 µM and 19 nM, respectively.

With `Cc1nc(C(F)(F)F)cnc1N[C@H]1CCC[C@@H]1NC(=O)c1ccccc1-c1ncccn1` [Example 79, N-[(1S,2S)-2-{[3-Methyl-5-(trifluoromethyl)pyrazin-2-yl]amino}cyclopentyl]-2-(pyrimidin-2-yl)benzamide], the IC50 at human orexin receptor 2 was more than 10 µM; on human orexin receptor 1, 35 nM.

`Cc1nc(C(F)(F)F)cnc1N[C@H]1CCC[C@@H]1NC(=O)c1cc(F)ccc1-c1ncccn1` [Example 80, 5-Fluoro-N-[(1S,2S)-2-{[3-methyl-5-(trifluoromethyl)pyrazin-2-yl]amino}cyclopentyl]-2-(pyrimidin-2-yl)benzamide]: the values for the IC50 at human orexin receptor 2 and on human orexin receptor 1 were more than 10 µM and 35 nM, respectively.

For `C[C@]1(Nc2cnc(C(F)(F)F)cn2)CCC[C@@H]1NC(=O)c1ccccc1-n1nccn1` [Example 81, N-[(1S,2S)-2-Methyl-2-{[5-(trifluoromethyl)pyrazin-2-yl]amino}cyclopentyl]-2-(2H-1,2,3-triazol-2-yl)benzamide], the IC50 on human orexin receptor 2 is more than 10 µM; on human orexin receptor 1, 7 nM.

As for `CC1(Nc2cnc(C(F)(F)F)cn2)CCCC1NC(=O)c1ccccc1-n1nccn1` (stereo not shown) [Example 82, N-(2-Methyl-2-{[5-(trifluoromethyl)pyrazin-2-yl]amino}cyclopentyl)-2-(2H-1,2,3-triazol-2-yl)benzamide], the IC50 on human orexin receptor 2 was determined as 7.54 µM; on human orexin receptor 1, 21 nM.

For the compound `C[C@@]1(Nc2cnc(C(F)(F)F)cn2)CCC[C@H]1NC(=O)c1ccccc1-n1nccn1` [Example 83, N-[(1R,2R)-2-Methyl-2-{[5-(trifluoromethyl)pyrazin-2-yl]amino}cyclopentyl]-2-(2H-1,2,3-triazol-2-yl)benzamide], the IC50 on human orexin receptor 2 was found to be 1.4 µM; on human orexin receptor 1, 2500 nM.

In the case of `C[C@]1(Nc2cnc(C(F)(F)F)cn2)CCC[C@@H]1NC(=O)c1cc(F)ccc1-n1nccn1` [Example 84, 5-Fluoro-N-[(1S,2S)-2-methyl-2-{[5-(trifluoromethyl)pyrazin-2-yl]amino}cyclopentyl]-2-(2H-1,2,3-triazol-2-yl)benzamide], the IC50 on human orexin receptor 2 is more than 10 µM; at human orexin receptor 1, 22 nM.

For `C[C@]1(Nc2cnc(C(F)(F)F)cn2)CCC[C@@H]1NC(=O)c1ncccc1-n1cccn1` [Example 85, N-[(1S,2S)-2-Methyl-2-{[5-(trifluoromethyl)pyrazin-2-yl]amino}cyclopentyl]-3-(1H-pyrazol-1-yl)pyridine-2-carboxamide], the half-inhibitory concentration (IC50) at human orexin receptor 2 was more than 10 µM; at human orexin receptor 1, 18 nM.

Regarding `CCOc1cccnc1C(=O)N[C@H]1CCC[C@]1(C)Nc1cnc(C(F)(F)F)cn1` [Example 86, 3-Ethoxy-N-[(1S,2S)-2-methyl-2-{[5-(trifluoromethyl)pyrazin-2-yl]amino}cyclopentyl]pyridine-2-carboxamide], the IC50 on human orexin receptor 2 is more than 10 µM; at human orexin receptor 1, 129 nM.

Turning to `C[C@]1(Nc2cnc(C(F)(F)F)cn2)CCC[C@@H]1NC(=O)c1c(Cl)cccc1-n1nccn1` [Example 87, 2-Chloro-N-[(1S,2S)-2-methyl-2-{[5-(trifluoromethyl)pyrazin-2-yl]amino}cyclopentyl]-6-(2H-1,2,3-triazol-2-yl)benzamide], the IC50 at human orexin receptor 2 is more than 10 µM; at human orexin receptor 1, 8 nM.

As to `C[C@]1(Nc2cnc(C(F)(F)F)cn2)CCC[C@@H]1NC(=O)c1c(F)cccc1F` [Example 88, 2,6-Difluoro-N-[(1S,2S)-2-methyl-2-{[5-(trifluoromethyl)pyrazin-2-yl]amino}cyclopentyl]benzamide], the IC50 at human orexin receptor 2 was more than 10 µM; at human orexin receptor 1 it was 166 nM.

Source of the values: US9156829B2, “Cycloalkyl and heterocycloalkyl compounds as orexin receptor antagonists” (Takeda Pharmaceutical Company Limited, priority 2014, dated 2015).
